Like-named read-outs stand apart in the source and are kept apart here. Marks after values point to notes of the source that are not given here.
Assays:
[1] = Plasma Stability Assay (Example A3), human plasma; assay type: in vitro ADME; conditions: 10 μM, 37° C.; for Human Plasma Metabolite (%): metabolite (mesembrine, 001) accumulated; for Human Plasma Prodrug (%): prodrug remaining
Source text: (§1) The data is represented in the table below.

[2] = assay type: in vitro ADME, human; conditions: 5 μM, 37° C.; for Human Plasma Metabolite (%): metabolite (mesembrine) accumulated; for Human Plasma Prodrug (%): prodrug remaining
Experimental: (§2) Each test was carried out in duplicate for each time point; 0 min, 15 min, 30 min, 60 min, 120, 240 min. […]

[3] = Plasma Stability Assay (Example A3), rat plasma; assay type: in vitro ADME; conditions: 10 μM, 37° C.; for Rat Plasma Metabolite (%): metabolite (mesembrine, 001) accumulated; for Rat Plasma Prodrug (%): prodrug remaining
Source text: as §1

[4] = Metabolic Stability in Human Hepatocytes; assay type: in vitro ADME; conditions: cryopreserved human hepatocytes, 37° C.
Experimental: A 2.5 uL aliquot of 100 μM test compound was incubated with 247.5 uL of cryopreserved hepatocytes suspended in serum-free incubation medium at 5×10^5 viable cells/mL. The mixture was incubated at 37° C. and shaken at 500 rpm for the designated time points (0.5, 15, 30, 60, 90, or 120 min). At each time point, 25 μL aliquot of incubation mixture was transferred to 125 μL of cold acetonitrile containing internal standard, followed by centrifugation for 30 min at 3,220 g. 100 μL of supernatant was mixed with 100 μL of distilled water for analysis by LC-MS/MS. Peak areas were determined from extracted ion chromatograms and in vitro half-life (t1/2) was determined from the concentration vs time regression slope, in vitro t1/2=0.693/k. Conversion of the in vitro t1/2 (in min) into the in vitro intrinsic clearance (in vitro CLint, in μL/min/10^6 cells) is done using: in vitro CLint=kV/N.

[5] = assay type: in vitro ADME, mouse; conditions: 5 μM, 37° C.; for Mouse Plasma Metabolite (%): metabolite (mesembrine) accumulated; for Mouse Plasma Prodrug (%): prodrug remaining
Experimental: as §2

in vivo = assay type: in vivo, mouse; conditions: for half-life / C0 / clearance / Vd: iv, 2 mg/kg; for C0: back extrapolated; for Vd: read-out: Vss
Experimental: Total fifteen male mice were used in this study with n=3 mice/time point with sparse sampling study design. Animals were administered through intravenous route with solution formulation of 321 at 2 mg/kg dose.
The extraction procedure for plasma/brain samples and the spiked plasma/brain calibration standards were identical (PMSF Stabilized Plasma and Brain used for Preparation of calibration standards): A 20 μL of study sample plasma/brain or spiked plasma/brain calibration standard was added to individual pre-labeled micro-centrifuge tubes followed by 200 μL of internal standard prepared in acetonitrile (Rosuvastatin, 50 ng/mL) was added except for blank, where 200 μL of acetonitrile was added. Samples were vortexed for 5 minutes. Samples were centrifuged for 10 minutes at a speed of 4000 rpm at 4° C. Following centrifugation, 200 μL of clear supernatant was transferred in 96 well plates and analyzed using LC-MS/MS.
Brain samples were diluted (1-part of tissue: 2-part of buffer) and homogenized. The homogenate was submitted for bioanalysis and the concentrations (ng/mL) received were corrected with dilution factor (3×) and the final reported concentrations were represented in ng/g.
The plasma and brain concentration-time data of 321 and 001 were used for the pharmacokinetic analysis.
LLOQ: 321: 1.02 ng/mL for plasma and brain 001: 1.01 ng/mL for plasma and brain

[6] = 321 after 321 IV 2 mg/kg, 0.08 h
[7] = 321 after 321 IV 2 mg/kg, 0.25 h
[8] = 321 after 321 IV 2 mg/kg, 0.5 h
[9] = male, C57BL/6, mouse, in vivo, 321 in brain after 321 IV 2 mg/kg
[10] = male, C57BL/6, mouse, in vivo, 321 in plasma after 321 IV 2 mg/kg

COc1ccc([C@@]23CCC(OP(=O)(OC(C)C)OC(C)C)=C[C@@H]2N(C)CC3)cc1OC [Compound 321, [(3aS,7aS)-3a-(3,4-dimethoxyphenyl)-1-methyl-3,4,5,7a-tetrahydro-2H-indol-6-yl]diisopropyl phosphate]
Human Plasma Metabolite (%) ([1]; 0 min): 0.40%
Human Plasma Metabolite (%) ([1]; 10 min): 0.50%
Human Plasma Metabolite (%) ([1]; 30 min): 0.57%
Human Plasma Metabolite (%) ([1]; 60 min): 0.65%
Human Plasma Metabolite (%) ([1]; 120 min): 0.82%
Human Plasma Metabolite (%) ([1]; 240 min): 0.96%
Human Plasma Prodrug (%) ([1]; 0 min): 100.0%
Human Plasma Prodrug (%) ([1]; 10 min): >99%
Human Plasma Prodrug (%) ([1]; 30 min): >99%
Human Plasma Prodrug (%) ([1]; 60 min): 98.1%
Human Plasma Prodrug (%) ([1]; 120 min): 94.5%
Human Plasma Prodrug (%) ([1]; 240 min): 96.3%
Human Plasma Metabolite (%) ([2]; 0 min): 0.08%
Human Plasma Metabolite (%) ([2]; 15 min): 0.29%
Human Plasma Metabolite (%) ([2]; 30 min): 0.40%
Human Plasma Metabolite (%) ([2]; 60 min): 0.49%
Human Plasma Metabolite (%) ([2]; 120 min): 0.67%
Human Plasma Metabolite (%) ([2]; 240 min): 0.61%
Human Plasma Prodrug (%) ([2]; 0 min): 100%
Human Plasma Prodrug (%) ([2]; 15 min): >99%
Human Plasma Prodrug (%) ([2]; 30 min): >99%
Human Plasma Prodrug (%) ([2]; 60 min): >99%
Human Plasma Prodrug (%) ([2]; 120 min): >99%
Human Plasma Prodrug (%) ([2]; 240 min): 78.2%
Rat Plasma Metabolite (%) ([3]; 0 min): 23.9%
Rat Plasma Metabolite (%) ([3]; 10 min): 53.7%
Rat Plasma Metabolite (%) ([3]; 30 min): 56.0%
Rat Plasma Metabolite (%) ([3]; 60 min): 59.1%
Rat Plasma Metabolite (%) ([3]; 120 min): 59.3%
Rat Plasma Metabolite (%) ([3]; 240 min): 56.7%
Rat Plasma Prodrug (%) ([3]; 0 min): 100.0%
Rat Plasma Prodrug (%) ([3]; 10 min): 74.0%
Rat Plasma Prodrug (%) ([3]; 30 min): 69.8%
Rat Plasma Prodrug (%) ([3]; 60 min): 69.2%
Rat Plasma Prodrug (%) ([3]; 120 min): 68.4%
Rat Plasma Prodrug (%) ([3]; 240 min): 65.7%
half-life at 1 μM [4]: 23 min
hepatocyte CLint at 1 μM [4]: 59.4 µL/min/1e6 cells
Mouse Plasma Metabolite (%) ([5]; 0 min): 11.9%
Mouse Plasma Metabolite (%) ([5]; 15 min): 28.4%
Mouse Plasma Metabolite (%) ([5]; 30 min): 38.3%
Mouse Plasma Metabolite (%) ([5]; 60 min): 51.1%
Mouse Plasma Metabolite (%) ([5]; 120 min): 53.7%
Mouse Plasma Metabolite (%) ([5]; 240 min): 55.2%
Mouse Plasma Prodrug (%) ([5]; 0 min): 100%
Mouse Plasma Prodrug (%) ([5]; 15 min): 77.3%
Mouse Plasma Prodrug (%) ([5]; 30 min): 74.5%
Mouse Plasma Prodrug (%) ([5]; 60 min): 58.4%
Mouse Plasma Prodrug (%) ([5]; 120 min): 43.1%
Mouse Plasma Prodrug (%) ([5]; 240 min): 31.7%
brain concentrations quantifiable up to (in vivo; 321 after 321 IV 2 mg/kg): ≤ 0.5 h
plasma concentrations quantifiable up to (in vivo; 321 after 321 IV 2 mg/kg): up to 2 h
Brain concentrations (mean) (in vivo; [6]): 99.58 ng/g
Plasma concentrations (mean) (in vivo; [6]): 304.66 ng/mL
Brain concentrations (mean) (in vivo; [7]): 37.11 ng/g
Plasma concentrations (mean) (in vivo; [7]): 104.69 ng/mL
Brain concentrations (mean) (in vivo; [8]): 7.89 ng/g
Plasma concentrations (mean) (in vivo; [8]): 26.16 ng/mL
Plasma concentrations (mean) (in vivo; 321 after 321 IV 2 mg/kg, 1 h): 8.57 ng/mL
Plasma concentrations (mean) (in vivo; 321 after 321 IV 2 mg/kg, 2 h, average of two values): 1.38^d ng/mL
AUClast (in vivo; 321 in brain after 321 IV 2 mg/kg): 27.57 ng·h/g
half-life (in vivo; [9]): 6.6 min
C0 (in vivo; [9]): 158 ng/mL
clearance (in vivo; male, C57BL/6, mouse, in vivo, 321 in brain after 321 IV 2 mg/kg, flagged NR (not reportable, very high vs liver blood flow)): 1150 mL/min/kg
Vd (in vivo; [9]): 10.3 L/kg
clearance (in vivo; [10]): 341 mL/min/kg
half-life (in vivo; [10]): 21.6 min
C0 (in vivo; [10]): 504 ng/mL
Vd (in vivo; [10]): 4.8 L/kg
Kp (in vivo; male, C57BL/6, mouse, in vivo, 321 after 321 IV 2 mg/kg, read-out: Brain-Kp): 0.28
AUC(0-t) (in vivo; [10]): 97.1 ng·h/mL

— patent publication US20240408119A1, “DELIVERY OF THERAPEUTIC ALKALOID COMPOUNDS” (priority 2022, published 2024)
